Experimental data published in patent US20250312323A1 (Cavion, Inc., priority 2018, published 2025).

Tests used:
[1] = system: patients with essential tremor; assay: T-CALM: TETRAS performance subscale, investigator rated
[2] = system: patients with essential tremor; assay: T-CALM: QUEST questionnaire, items on anti-tremor medication; assay type: in vivo, human
Solubility of CX-8998 = assay type: physicochemical; settings: at higher pH values
Text: Sustained release (SR) beads were developed with multiple types of sustained release and enteric coatings. Some SR matrix beads were developed using typical polymers (e.g., hydroxypropyl methylcellulose or carbopol) to achieve sustained release. Some SR matrix beads were developed using pH independent sustained release osmotic pumps to achieve zero order release from the tablet. […] Some SR matrix beads were developed using Eudragit RS/RL30D coating of IR beads to achieve an approach that depends on slow erosion of coating thereby sustaining the release of the drug from an IR matrix.

[3] = system: patients with essential tremor; assay: T-CALM: TETRAS activities of daily living subscale; assay type: in vivo, human; settings: for TETRAS-ADL Score change from baseline, Median (minimum, maximum): Day 15, post-hoc
Protocol: The sum of the individual scores provides the overall score, ranging from 0 to 48. The complete TETRAS ADL Subscale is as follows.
Analyses of the TETRAS-ADL was conducted using the same type of ANCOVA model as described for the TETRAS-PS, using two-sided tests at the alpha=0.05 level of significance (FIG. 2 and Table 2).
(§1) Both sets of scores were statistically analyzed.

[4] = system: patients with essential tremor; assay: T-CALM: Kinesia ONE accelerometry score; assay type: in vivo, human
Text: Kinesia One platform is deployed in T-CALM as a digital marker of tremor severity. Kinesia One is FDA cleared for monitoring Parkinson's motor symptom severity with only limited data on assessment of tremor in ET patients. The algorithmically derived score was developed primarily in Parkinson's disease algorithms and has limited validation in ET (see, e.g., Hoffman et al., 2011 Conf Proc IEEE Eng Med Biol Soc. 2011:4378-81). The Kinesia One device is placed on the index finger of each ET patient and worn in the clinic after completion of the TETRAS Performance subscale. Four tasks are performed by the patient on the left and right sides to assess resting, postural, kinetic and lateral wing beating tremor. The Kinesia One score change in score from baseline to day 28 is evaluated as a secondary efficacy endpoint. The Kinesia One data is also utilized for exploratory analysis of efficacy on the change from baseline to day 15 for accelerometry score and for change from baseline on amplitude measures for days 15 and 28. Consistent finger sensor placement and consistent task execution are critical factors for valid Kinesia One scores.
as §1

[5] = system: patients with essential tremor; assay: T-CALM: TETRAS performance subscale, independent video raters; assay type: in vivo, human; settings: Day 28
Text: as §1

[6] = Day 15, change from baseline, N = 39
[7] = Day 28, change from baseline, N = 37

CC(C)c1ccc(CC(=O)N[C@H](C)c2ccc(OCC(F)(F)F)cn2)cc1 [CX-8998]
TETRAS-PS Score, subjects with 0 change, n (%) [1, 6]: 2 (5.1%) | TETRAS-PS Score, subjects with >0 to 1 point improvement, n (%) [1, 6]: 3 (7.7%) | TETRAS-PS Score, subjects with >0 to 1 point worsening, n (%) [1, 6]: 2 (5.1%) | TETRAS-PS Score, subjects with >1 to 2.5 point improvement, n (%) [1, 6]: 4 (10.3%) | TETRAS-PS Score, subjects with >1 to 2.5 point worsening, n (%) [1, 6]: 5 (12.8%) | TETRAS-PS Score, subjects with >2.5 to 5 point improvement, n (%) [1, 6]: 10 (25.6%) | TETRAS-PS Score, subjects with >2.5 to 5 point worsening, n (%) [1, 6]: 2 (5.1%) | TETRAS-PS Score, subjects with >5 to 10 point improvement, n (%) [1, 6]: 8 (20.5%) | TETRAS-PS Score, subjects with >5 to 10 point worsening, n (%) [1, 6]: 0 | TETRAS-PS Score, subjects with >10 point improvement, n (%) [1, 6]: 3 (7.7%) | TETRAS-PS Score, subjects with >10 point worsening, n (%) [1, 6]: 0 | LS mean (±SE) change from baseline in TETRAS-PS scored by investigators (in person), primary endpoint analysis ([1]; Day 28): −4.8±0.80 | Subjects with improvement of at least 5 points by TETRAS-PS score, number ([1]; Day 28, N 37): 16 | Subjects with improvement of at least 5 points by TETRAS-PS score, percent ([1]; Day 28, N 37): (43.2%) | TETRAS-PS Score, subjects with 0 change, n (%) [1, 7]: 1 (2.6%) | TETRAS-PS Score, subjects with >0 to 1 point improvement, n (%) [1, 7]: 6 (15.4%) | TETRAS-PS Score, subjects with >0 to 1 point worsening, n (%) [1, 7]: 2 (5.1%) | TETRAS-PS Score, subjects with >1 to 2.5 point improvement, n (%) [1, 7]: 5 (12.8%) | TETRAS-PS Score, subjects with >1 to 2.5 point worsening, n (%) [1, 7]: 1 (2.6%) | TETRAS-PS Score, subjects with >2.5 to 5 point improvement, n (%) [1, 7]: 11 (28.2%) | TETRAS-PS Score, subjects with >2.5 to 5 point worsening, n (%) [1, 7]: 1 (2.6%) | TETRAS-PS Score, subjects with >5 to 10 point improvement, n (%) [1, 7]: 8 (20.5%) | TETRAS-PS Score, subjects with >5 to 10 point worsening, n (%) [1, 7]: 0 | TETRAS-PS Score, subjects with >10 point improvement, n (%) [1, 7]: 4 (10.3%) | TETRAS-PS Score, subjects with >10 point worsening, n (%) [1, 7]: 0 | QUEST: Side effect from tremor medication in past month? answer No, patients, number (%) ([2]; Day 15): 25 (64%) | QUEST: Side effect from tremor medication in past month? answer Yes, patients, number (%) ([2]; Day 15): 14 (36%) | QUEST: Side effect from tremor medication in past month? answer No, patients, number (%) ([2]; Day 28): 30 (77%) | QUEST: Side effect from tremor medication in past month? answer Yes, patients, number (%) ([2]; Day 28): 7 (18%) | solubility (Solubility of CX-8998): poor solubility | Subjects with improvement of at least 5 points by TETRAS-ADL score, number ([3]; Day 15, N 39): 18 | TETRAS-ADL Score, subjects with 0 change, n (%) [3, 6]: 2 (5.1%) | TETRAS-ADL Score, subjects with >0 to 1 point improvement, n (%) [3, 6]: 5 (12.8%) | TETRAS-ADL Score, subjects with >0 to 1 point worsening, n (%) [3, 6]: 1 (2.6%) | TETRAS-ADL Score, subjects with >1 to 2.5 point improvement, n (%) [3, 6]: 2 (5.1%) | TETRAS-ADL Score, subjects with >1 to 2.5 point worsening, n (%) [3, 6]: 3 (7.7%) | TETRAS-ADL Score, subjects with >2.5 to 5 point improvement, n (%) [3, 6]: 7 (17.9%) | TETRAS-ADL Score, subjects with >2.5 to 5 point worsening, n (%) [3, 6]: 3 (7.7%) | TETRAS-ADL Score, subjects with >5 to 10 point improvement, n (%) [3, 6]: 11 (28.2%) | TETRAS-ADL Score, subjects with >5 to 10 point worsening, n (%) [3, 6]: 0 | TETRAS-ADL Score, subjects with >10 point improvement, n (%) [3, 6]: 5 (12.8%) | TETRAS-ADL Score, subjects with >10 point worsening, n (%) [3, 6]: 0 | TETRAS-ADL Score change from baseline, Median (minimum, maximum) ([3]; patients Minimally Improved by CGI-I): −2.0 (−11, 3) | TETRAS-ADL Score change from baseline, Median (minimum, maximum) ([3]; patients Minimally Improved by PGIC): −4.0 (−13, 4) | Subjects with improvement of at least 5 points by TETRAS-ADL score, number ([3]; Day 28, N 37): 11 | TETRAS-ADL Score, subjects with 0 change, n (%) [3, 7]: 5 (13.5%) | TETRAS-ADL Score, subjects with >0 to 1 point improvement, n (%) [3, 7]: 2 (5.4%) | TETRAS-ADL Score, subjects with >0 to 1 point worsening, n (%) [3, 7]: 3 (8.1%) | TETRAS-ADL Score, subjects with >1 to 2.5 point improvement, n (%) [3, 7]: 3 (8.1%) | TETRAS-ADL Score, subjects with >1 to 2.5 point worsening, n (%) [3, 7]: 3 (8.1%) | TETRAS-ADL Score, subjects with >2.5 to 5 point improvement, n (%) [3, 7]: 7 (18.9%) | TETRAS-ADL Score, subjects with >2.5 to 5 point worsening, n (%) [3, 7]: 3 (8.1%) | TETRAS-ADL Score, subjects with >5 to 10 point improvement, n (%) [3, 7]: 6 (16.2) | TETRAS-ADL Score, subjects with >5 to 10 point worsening, n (%) [3, 7]: 0 | TETRAS-ADL Score, subjects with >10 point improvement, n (%) [3, 7]: 5 (13.5%) | TETRAS-ADL Score, subjects with >10 point worsening, n (%) [3, 7]: 0 | Kinesia ONE Total Score change from baseline, LS mean difference from placebo (95% CI) ([4]; Day 15, ANCOVA): −0.4 (−1.7, 0.9) | Kinesia ONE score, difference vs placebo ([4]; Day 15 and Day 28): did not show a significant difference | LS mean (±SE) change from baseline in TETRAS-PS scored by independent video raters (primary endpoint) [5]: −1.8±0.81
